Experimental data published in ChEMBL document CHEMBL5465560, “Selectivity Literature for EUbOPEN Chemogenomic Library” (2024).
Blank lines part the entries; values can stand above or below the compound they belong to.

Columns and labels:
Activated CDC42 kinase 1 = Activated CDC42 kinase 1 (Homo sapiens, UniProt Q07912); assay: Selectivity interaction (KinaseProfiler screening (Millipore)) EUB0000601a TNK2; settings: at 3 µM
[1] = target: LIM domain kinase 2 (Homo sapiens) (UniProt P53671); assay: Selectivity interaction (KinomeScan (DiscoverX)) EUB0001049a LIMK2; settings: at 1 µM
Chain of LIM domain kinase 2 (Homo sapiens) (P53671 whole entry, looked up, the tested form may be a part): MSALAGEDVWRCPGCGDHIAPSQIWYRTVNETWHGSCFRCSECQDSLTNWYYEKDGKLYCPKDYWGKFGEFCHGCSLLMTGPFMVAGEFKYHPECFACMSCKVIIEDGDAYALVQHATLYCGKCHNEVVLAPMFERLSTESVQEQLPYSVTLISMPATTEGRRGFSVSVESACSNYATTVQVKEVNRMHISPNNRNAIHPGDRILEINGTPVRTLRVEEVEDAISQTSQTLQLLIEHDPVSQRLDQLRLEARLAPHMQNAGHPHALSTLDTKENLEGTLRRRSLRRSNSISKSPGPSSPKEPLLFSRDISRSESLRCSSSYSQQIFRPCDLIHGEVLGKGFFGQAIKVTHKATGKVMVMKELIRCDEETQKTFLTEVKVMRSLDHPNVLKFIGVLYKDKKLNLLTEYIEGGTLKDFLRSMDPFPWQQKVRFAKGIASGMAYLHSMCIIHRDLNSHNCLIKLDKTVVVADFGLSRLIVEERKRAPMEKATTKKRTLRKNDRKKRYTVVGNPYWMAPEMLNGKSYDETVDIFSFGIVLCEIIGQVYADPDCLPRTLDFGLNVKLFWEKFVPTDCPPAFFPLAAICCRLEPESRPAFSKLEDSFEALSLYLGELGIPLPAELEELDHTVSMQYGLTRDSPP

[2] = target: RAF proto-oncogene serine/threonine-protein kinase (Homo sapiens) (UniProt P04049); assay: Selectivity interaction (Ambit KINOMEscan and KiNATiv profiling in Jurkat cells) EUB0000090b RAF1; assay type: cell-based; settings: at 1 µM
[3] = target: T1, Phosphatidylinositol 5-phosphate 4-kinase type-2 beta (Homo sapiens) (UniProt P78356); assay: Selectivity interaction (ActivX KiNativ screen (kinase selectivity in THP-1 cell lysates)) EUB0000639a PIP4K2B; assay type: subcellular; settings: lysate
T1 sequence (whole entry): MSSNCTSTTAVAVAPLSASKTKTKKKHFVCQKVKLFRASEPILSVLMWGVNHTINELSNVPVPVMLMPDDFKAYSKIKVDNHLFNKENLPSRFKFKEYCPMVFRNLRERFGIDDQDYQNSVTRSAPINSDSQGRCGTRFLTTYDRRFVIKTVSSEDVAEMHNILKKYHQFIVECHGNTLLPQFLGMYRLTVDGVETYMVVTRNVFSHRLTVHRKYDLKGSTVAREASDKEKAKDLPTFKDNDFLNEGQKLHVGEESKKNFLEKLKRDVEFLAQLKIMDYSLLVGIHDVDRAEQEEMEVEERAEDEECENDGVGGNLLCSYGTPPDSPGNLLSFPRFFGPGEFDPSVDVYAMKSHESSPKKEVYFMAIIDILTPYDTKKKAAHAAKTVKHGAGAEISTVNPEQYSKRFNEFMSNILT

[4] = target: Serine/threonine-protein kinase PLK1 (Homo sapiens, UniProt P53350); assay: Selectivity interaction (ActivX KiNativ screen (kinase selectivity in THP-1 cell lysates)) EUB0000639a PLK1; assay type: subcellular; settings: lysate, at 1 µM
Chain of Serine/threonine-protein kinase PLK1 (P53350 whole entry): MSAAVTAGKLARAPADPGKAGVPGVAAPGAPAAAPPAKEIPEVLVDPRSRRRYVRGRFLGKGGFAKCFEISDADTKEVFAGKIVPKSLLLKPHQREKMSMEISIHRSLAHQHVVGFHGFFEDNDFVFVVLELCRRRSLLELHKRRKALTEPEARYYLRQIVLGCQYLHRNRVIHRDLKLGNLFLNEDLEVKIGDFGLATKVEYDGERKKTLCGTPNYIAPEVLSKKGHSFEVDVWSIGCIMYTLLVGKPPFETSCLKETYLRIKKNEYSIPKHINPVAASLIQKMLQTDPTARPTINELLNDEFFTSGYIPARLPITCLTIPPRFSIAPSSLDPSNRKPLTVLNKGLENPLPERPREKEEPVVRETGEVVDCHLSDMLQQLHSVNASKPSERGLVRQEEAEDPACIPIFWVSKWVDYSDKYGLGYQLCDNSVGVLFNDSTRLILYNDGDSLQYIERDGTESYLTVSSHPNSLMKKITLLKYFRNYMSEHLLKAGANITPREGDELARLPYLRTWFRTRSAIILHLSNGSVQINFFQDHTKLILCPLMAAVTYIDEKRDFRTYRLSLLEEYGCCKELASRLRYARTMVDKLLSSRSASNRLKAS

[5] = target: T2, Serine/threonine-protein kinase Nek9 (Homo sapiens) (UniProt Q8TD19); settings: at 10 µM
T2 sequence (whole entry): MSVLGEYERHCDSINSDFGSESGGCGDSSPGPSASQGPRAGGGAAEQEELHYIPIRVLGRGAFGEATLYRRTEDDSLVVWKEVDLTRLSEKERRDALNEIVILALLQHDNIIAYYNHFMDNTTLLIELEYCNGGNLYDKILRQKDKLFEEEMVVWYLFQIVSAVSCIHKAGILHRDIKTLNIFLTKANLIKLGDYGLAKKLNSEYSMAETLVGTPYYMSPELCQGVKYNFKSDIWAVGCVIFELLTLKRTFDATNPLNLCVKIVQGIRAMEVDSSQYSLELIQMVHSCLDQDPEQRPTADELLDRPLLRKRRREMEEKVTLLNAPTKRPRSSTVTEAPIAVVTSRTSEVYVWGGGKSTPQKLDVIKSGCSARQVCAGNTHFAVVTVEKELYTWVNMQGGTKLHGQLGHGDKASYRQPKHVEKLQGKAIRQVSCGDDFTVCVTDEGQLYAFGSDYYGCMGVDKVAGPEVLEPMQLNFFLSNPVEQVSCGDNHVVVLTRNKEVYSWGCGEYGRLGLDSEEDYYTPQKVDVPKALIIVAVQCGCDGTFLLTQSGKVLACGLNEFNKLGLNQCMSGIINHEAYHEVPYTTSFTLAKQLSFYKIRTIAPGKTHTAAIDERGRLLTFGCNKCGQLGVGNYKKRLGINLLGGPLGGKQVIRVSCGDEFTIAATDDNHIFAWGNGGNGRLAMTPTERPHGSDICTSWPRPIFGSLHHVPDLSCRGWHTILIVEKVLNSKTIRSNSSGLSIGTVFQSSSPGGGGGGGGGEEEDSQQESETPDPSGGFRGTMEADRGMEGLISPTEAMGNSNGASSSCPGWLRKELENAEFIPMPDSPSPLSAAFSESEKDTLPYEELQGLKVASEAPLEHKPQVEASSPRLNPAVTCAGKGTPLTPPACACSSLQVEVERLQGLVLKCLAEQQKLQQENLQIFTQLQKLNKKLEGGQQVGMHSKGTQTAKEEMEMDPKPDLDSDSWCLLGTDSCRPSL

[6] = target: T3, NUAK family SNF1-like kinase 1 (Homo sapiens) (UniProt O60285); assay: Selectivity interaction (ProQinase) EUB0000171b NUAK1
T3 sequence (whole entry): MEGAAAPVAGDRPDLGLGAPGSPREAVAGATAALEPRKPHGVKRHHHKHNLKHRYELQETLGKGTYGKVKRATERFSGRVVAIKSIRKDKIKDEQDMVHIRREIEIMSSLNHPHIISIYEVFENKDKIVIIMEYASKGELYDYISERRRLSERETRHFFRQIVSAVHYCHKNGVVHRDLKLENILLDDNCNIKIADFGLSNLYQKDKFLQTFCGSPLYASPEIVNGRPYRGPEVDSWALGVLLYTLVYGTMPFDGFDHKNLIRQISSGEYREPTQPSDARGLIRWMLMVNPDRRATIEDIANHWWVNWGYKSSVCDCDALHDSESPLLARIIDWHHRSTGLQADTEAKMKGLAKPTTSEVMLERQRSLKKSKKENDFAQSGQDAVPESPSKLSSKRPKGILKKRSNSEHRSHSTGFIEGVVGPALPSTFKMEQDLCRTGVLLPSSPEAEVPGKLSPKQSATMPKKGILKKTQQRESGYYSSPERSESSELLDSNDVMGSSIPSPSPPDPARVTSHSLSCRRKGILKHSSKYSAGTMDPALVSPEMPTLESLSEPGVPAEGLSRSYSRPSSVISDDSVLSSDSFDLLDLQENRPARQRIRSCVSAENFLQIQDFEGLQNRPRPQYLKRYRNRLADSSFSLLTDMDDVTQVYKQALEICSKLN

[7] = target: Mitogen-activated protein kinase kinase kinase 8 (Homo sapiens, UniProt P41279); assay: Selectivity interaction (ProQinase) EUB0000171b MAP3K8
Chain of Mitogen-activated protein kinase kinase kinase 8 (P41279 whole entry): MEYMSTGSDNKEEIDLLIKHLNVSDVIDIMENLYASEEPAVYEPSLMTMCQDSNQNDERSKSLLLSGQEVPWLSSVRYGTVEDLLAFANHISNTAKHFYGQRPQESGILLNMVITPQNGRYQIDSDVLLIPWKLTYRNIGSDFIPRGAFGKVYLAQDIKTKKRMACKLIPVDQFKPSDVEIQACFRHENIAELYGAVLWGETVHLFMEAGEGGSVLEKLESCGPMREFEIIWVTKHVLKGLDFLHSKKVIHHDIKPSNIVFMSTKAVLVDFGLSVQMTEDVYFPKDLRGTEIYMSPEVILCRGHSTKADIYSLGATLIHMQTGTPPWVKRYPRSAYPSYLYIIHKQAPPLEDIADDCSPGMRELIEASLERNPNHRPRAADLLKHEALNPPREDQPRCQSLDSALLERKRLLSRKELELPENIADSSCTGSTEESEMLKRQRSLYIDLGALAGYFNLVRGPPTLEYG

[8] = target: Microtubule-associated serine/threonine-protein kinase 1 (Homo sapiens) (UniProt Q9Y2H9); assay: Selectivity interaction (KinomeScan (DiscoverX)) EUB0000618a MAST1; settings: at 10 µM
Chain of Microtubule-associated serine/threonine-protein kinase 1 (Homo sapiens) (Q9Y2H9 whole entry, looked up): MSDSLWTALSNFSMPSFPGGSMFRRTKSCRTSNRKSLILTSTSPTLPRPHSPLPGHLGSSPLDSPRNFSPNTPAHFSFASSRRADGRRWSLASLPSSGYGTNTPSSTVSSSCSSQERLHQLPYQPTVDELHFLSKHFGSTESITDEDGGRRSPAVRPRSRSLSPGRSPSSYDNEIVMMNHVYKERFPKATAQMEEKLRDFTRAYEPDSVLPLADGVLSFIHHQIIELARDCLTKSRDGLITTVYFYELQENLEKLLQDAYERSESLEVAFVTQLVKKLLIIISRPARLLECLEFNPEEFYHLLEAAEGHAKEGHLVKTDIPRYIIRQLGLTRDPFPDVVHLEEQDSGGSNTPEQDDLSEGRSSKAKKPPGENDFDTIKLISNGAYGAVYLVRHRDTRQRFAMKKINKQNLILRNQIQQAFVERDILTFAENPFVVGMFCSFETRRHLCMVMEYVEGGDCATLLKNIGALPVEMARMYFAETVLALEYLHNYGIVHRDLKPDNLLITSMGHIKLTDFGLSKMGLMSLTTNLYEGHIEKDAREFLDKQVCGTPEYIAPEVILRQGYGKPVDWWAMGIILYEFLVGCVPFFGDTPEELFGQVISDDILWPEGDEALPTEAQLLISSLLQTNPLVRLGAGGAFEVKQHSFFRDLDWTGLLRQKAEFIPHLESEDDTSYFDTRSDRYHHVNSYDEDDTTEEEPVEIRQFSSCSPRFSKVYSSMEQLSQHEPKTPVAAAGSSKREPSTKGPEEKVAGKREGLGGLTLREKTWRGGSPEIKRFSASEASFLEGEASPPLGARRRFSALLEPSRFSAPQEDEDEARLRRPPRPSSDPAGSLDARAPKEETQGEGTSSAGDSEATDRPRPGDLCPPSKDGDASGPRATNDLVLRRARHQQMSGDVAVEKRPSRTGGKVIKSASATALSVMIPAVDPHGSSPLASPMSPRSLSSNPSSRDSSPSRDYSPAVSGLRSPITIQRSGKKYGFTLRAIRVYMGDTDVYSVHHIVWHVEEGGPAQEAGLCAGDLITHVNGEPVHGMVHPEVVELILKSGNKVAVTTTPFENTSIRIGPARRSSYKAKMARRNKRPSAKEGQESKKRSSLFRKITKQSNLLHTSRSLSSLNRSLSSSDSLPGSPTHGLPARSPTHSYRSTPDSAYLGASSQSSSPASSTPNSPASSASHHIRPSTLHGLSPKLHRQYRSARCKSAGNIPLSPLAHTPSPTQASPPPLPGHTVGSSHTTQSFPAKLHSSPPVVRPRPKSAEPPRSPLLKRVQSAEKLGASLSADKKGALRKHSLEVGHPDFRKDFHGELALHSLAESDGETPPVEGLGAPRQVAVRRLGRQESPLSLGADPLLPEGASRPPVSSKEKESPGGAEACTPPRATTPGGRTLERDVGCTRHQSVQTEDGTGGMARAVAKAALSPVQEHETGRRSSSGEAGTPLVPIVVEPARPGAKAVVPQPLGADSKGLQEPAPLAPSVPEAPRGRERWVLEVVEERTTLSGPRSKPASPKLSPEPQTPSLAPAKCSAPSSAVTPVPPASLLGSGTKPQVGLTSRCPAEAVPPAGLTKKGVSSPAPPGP

[9] = target: Ribosomal protein S6 kinase alpha-1 (Homo sapiens, UniProt Q15418); assay: Selectivity interaction (SelectScreen profiling (Invitrogen)) EUB0000607a RPS6KA1; settings: at 2 µM
Chain of Ribosomal protein S6 kinase alpha-1 (Q15418 whole entry): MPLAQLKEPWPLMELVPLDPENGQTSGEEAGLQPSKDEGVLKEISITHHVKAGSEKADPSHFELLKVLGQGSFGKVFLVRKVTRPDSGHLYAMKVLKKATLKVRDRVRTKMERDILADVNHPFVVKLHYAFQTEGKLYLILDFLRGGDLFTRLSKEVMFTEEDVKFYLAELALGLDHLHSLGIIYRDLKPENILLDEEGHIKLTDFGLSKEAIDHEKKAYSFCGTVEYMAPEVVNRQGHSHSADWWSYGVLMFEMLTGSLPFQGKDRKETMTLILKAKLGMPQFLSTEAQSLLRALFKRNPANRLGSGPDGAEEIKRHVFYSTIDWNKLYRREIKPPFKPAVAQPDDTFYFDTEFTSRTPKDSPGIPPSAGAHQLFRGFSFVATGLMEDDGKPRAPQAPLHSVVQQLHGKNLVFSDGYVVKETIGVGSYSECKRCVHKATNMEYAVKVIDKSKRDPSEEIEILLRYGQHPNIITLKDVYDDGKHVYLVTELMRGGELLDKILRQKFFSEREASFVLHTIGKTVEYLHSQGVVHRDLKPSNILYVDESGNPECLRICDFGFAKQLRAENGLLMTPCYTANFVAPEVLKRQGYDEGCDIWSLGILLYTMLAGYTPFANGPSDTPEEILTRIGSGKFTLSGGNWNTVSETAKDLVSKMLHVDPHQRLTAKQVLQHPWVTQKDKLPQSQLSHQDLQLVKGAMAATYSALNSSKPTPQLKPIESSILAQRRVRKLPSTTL

Chain of Activated CDC42 kinase 1 (Q07912 whole entry, looked up, the tested form may be a part): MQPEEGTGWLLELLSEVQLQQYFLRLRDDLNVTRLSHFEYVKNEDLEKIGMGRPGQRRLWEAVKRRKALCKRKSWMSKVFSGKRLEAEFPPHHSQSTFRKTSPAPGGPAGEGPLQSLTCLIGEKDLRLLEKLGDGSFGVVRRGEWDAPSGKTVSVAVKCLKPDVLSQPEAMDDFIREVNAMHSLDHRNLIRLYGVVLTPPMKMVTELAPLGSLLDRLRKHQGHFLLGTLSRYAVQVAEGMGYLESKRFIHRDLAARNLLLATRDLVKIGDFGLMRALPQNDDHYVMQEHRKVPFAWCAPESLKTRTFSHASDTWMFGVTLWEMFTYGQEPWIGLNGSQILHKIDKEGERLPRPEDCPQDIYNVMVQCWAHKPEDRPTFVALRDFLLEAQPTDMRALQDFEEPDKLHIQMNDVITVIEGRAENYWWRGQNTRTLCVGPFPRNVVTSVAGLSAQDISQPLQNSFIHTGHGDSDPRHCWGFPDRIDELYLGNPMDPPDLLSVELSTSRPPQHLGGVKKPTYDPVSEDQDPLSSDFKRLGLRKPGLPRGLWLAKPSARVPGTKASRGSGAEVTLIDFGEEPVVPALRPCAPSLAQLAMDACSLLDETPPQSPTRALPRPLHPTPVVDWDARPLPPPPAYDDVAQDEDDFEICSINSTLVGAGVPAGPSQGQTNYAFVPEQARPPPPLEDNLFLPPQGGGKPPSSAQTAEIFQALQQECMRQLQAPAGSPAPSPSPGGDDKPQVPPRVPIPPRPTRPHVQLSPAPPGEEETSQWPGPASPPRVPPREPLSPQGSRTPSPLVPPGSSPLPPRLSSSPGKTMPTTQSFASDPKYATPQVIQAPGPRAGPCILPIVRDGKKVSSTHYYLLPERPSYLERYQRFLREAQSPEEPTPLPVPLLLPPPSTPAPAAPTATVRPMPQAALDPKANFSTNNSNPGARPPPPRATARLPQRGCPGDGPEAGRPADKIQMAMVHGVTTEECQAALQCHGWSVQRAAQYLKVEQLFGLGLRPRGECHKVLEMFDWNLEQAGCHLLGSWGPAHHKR

% of inhibition (Activated CDC42 kinase 1): 34%
SMILES: CCc1cc(Nc2nccc(-c3c(-c4ccc(OC)c(C(=O)Nc5c(F)cccc5F)c4)nc4ccccn34)n2)c(OC)cc1N1CCC(N2CCN(S(C)(=O)=O)CC2)CC1

SMILES: COc1cc(Nc2nc(C)cc(-c3cnn4nc(OC)ccc34)n2)cc(C(F)(F)F)c1
% of control [1]: 92%

SMILES: CN(C)C/C=C/C(=O)Nc1ccc(C(=O)N2CCCC(Nc3ncc(Cl)c(-c4c[nH]c5ccccc45)n3)C2)cc1 (stereo unspecified)
% of control [2]: 91%

% of inhibition ([3]; at 0.01 µM): 11.7%
% of inhibition ([3]; at 0.04 µM): -9.5%
% of inhibition ([3]; at 0.2 µM): -6.6%
% of inhibition ([3]; at 1 µM): 4%
% of inhibition ([3]; at 5 µM): 0.1%
% of inhibition [4]: -2.8%
SMILES: CC[C@@H]1[C@H](F)C(=O)N[C@@H]1COc1nccc2cc(C(N)=O)c(OC)cc12 [ZIMLOVISERTIB]

SMILES: CCN(CC)CCCCNc1ncc2cc(-c3cc(OC)cc(OC)c3)c(NC(=O)NC(C)(C)C)nc2n1
% of control [5]: 100%

% of control ([6]; at 1 µM): 97%
% of control ([6]; at 5 µM): 88%
% of control ([7]; at 1 µM): 95%
% of control ([7]; at 5 µM): 103%
SMILES: C=CC(=O)Nc1cccc(C(=O)Nc2ccc(Nc3cc(-c4[nH]c(SC)nc4C)ccn3)cc2)c1

SMILES: O[C@H]1CC[C@H](Nc2ncc3nc(Nc4c(F)cc(F)cc4F)n([C@H]4CCOC4)c3n2)CC1
% of control [8]: 75%

SMILES: CNC(=O)Nc1ccc(-c2nc(N3CC4CCC(C3)O4)c3cnn(C4CCC5(CC4)OCCO5)c3n2)cc1
% of inhibition [9]: 4%
